Common to all, as to assay type: binding
For test [1], the target named is T1, darcin (Mus musculus, UniProt Q5FW60).
T1 construct: gene Mup20; N-terminal His6-tagged recombinant darcin (mature protein)
T1 sequence (Q5FW60 20-181): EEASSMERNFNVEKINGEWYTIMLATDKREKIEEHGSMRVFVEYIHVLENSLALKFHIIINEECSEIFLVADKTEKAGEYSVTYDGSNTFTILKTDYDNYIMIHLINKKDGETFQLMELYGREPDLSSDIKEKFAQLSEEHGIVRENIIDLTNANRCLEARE
Description: 1H-15N HSQC NMR chemical shift perturbation.

The target of test [2] is T2, MUP11 (Mus musculus, UniProt P04938).
T2 construct: N-terminal His6-tagged recombinant MUP11 (mature protein)
T2 sequence (P04938 20-181): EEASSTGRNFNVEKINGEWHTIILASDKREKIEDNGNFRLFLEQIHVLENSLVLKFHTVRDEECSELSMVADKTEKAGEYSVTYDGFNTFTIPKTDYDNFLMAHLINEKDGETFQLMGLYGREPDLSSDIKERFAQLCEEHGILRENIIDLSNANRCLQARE
Description: 1H-15N HSQC NMR chemical shift perturbation.

Test [3] concerns the target T1, darcin. Description: ITC, one-site model, […] °C; also 1H-15N HSQC NMR titration. On the technique in general: Isothermal titration calorimetry measures the heat released or taken up as one component is titrated into another.
Test [4] concerns the target T2, MUP11. The test is described as above.

With `CC1=CC(=O)c2ccccc2C1=O` [K3, menadione], the “1H-15N HSQC NMR chemical shift perturbation” value at darcin [1] was “The smaller ligands, K3 and SBT, bind to both darcin and MUP11 in the hydrophobic cavity of the beta barrel”; at MUP11 [2], “The smaller ligands, K3 and SBT, bind to both darcin and MUP11 in the hydrophobic cavity of the beta barrel”.
Usually Kd stands for the free concentration of one partner at which half of the binding sites on the other are occupied at equilibrium, for simple one-to-one binding. A lower Kd goes with a tighter complex. For `CCC(C)c1nccs1` (stereo not shown) [SBT, 2-sec-butyl-thiazole], the values for the Kd on darcin [3] and on MUP11 [4] were approximately 173 nM and approximately 2760 nM, respectively.

The values above are taken from publication PMC4184797, “The Structure, Stability and Pheromone Binding of the Male Mouse Protein Sex Pheromone Darcin” (PLoS ONE, 2014).
